CC1(C)COP(=O)(Oc2cccc(OP3(=O)OCC(C)(C)CO3)c2)OC1
solubility (mole fraction)
Details	293.15 K	298.15 K	303.15 K	308.15 K	313.15 K	318.15 K	323.15 K	328.15 K	333.15 K
in 1,2-dichloroethane	0.017	0.0199	0.0233	0.0273	0.0317	0.0366	0.0423	0.0491	0.0564
in acetone	0.00607	0.00796	0.0103	0.0131	0.0163	0.0201	0.0251	–	–
in acetonitrile	0.0102	0.0127	0.0153	0.0191	0.0231	0.0279	0.0342	0.0405	0.0491
in chloroform	0.0646	0.07	0.0751	0.0807	0.086	0.0923	0.0984	–	–
in ethanol	0.00179	0.0024	0.00313	0.00413	0.00541	0.00702	0.00902	0.0118	0.0151
in ethyl acetate	0.0008	0.00099	0.00123	0.00154	0.00189	0.00233	0.00284	0.00348	0.0042
in ethyl formate	0.00422	0.00508	0.00607	0.00713	0.00842	0.00988	0.0116	–	–
in methanol	0.0022	0.00357	0.00543	0.0085	0.0129	0.0187	0.0284	–	–
in methyl acetate	0.00229	0.00281	0.00347	0.00422	0.00511	0.0062	0.00745	–	–
in n-hexane	1e-05	2e-05	2e-05	4e-05	6e-05	8e-05	0.00012	–	–
in n-propanol	0.00096	0.00135	0.00187	0.0026	0.00356	0.00495	0.00658	0.00899	0.0118
in toluene	0.00016	0.0002	0.00026	0.00032	0.0004	0.00049	0.00061	0.00076	0.0009

— BigSolDB 2.1
